Reference: paper PMC11201819 (Protein Science : A Publication of the Protein Society, 2024)

Experiments:
[1] = molecular target: T1, CLsoDHDPS (dihydrodipicolinate synthase) (Candidatus Liberibacter solanacearum, UniProt A0A0F4VK59); format: binding
T1 construct: gene dapA

[2] = molecular target: T1, CLsoDHDPS (dihydrodipicolinate synthase); test: biochemical
[3] = molecular target: T1, CLsoDHDPS (dihydrodipicolinate synthase); test: biochemical; remark: listed apart in the source
[4] = tested on: N[C@@H](CC=O)C(=O)O; test: purified protein

T1 sequence (A0A0F4VK59 1-296): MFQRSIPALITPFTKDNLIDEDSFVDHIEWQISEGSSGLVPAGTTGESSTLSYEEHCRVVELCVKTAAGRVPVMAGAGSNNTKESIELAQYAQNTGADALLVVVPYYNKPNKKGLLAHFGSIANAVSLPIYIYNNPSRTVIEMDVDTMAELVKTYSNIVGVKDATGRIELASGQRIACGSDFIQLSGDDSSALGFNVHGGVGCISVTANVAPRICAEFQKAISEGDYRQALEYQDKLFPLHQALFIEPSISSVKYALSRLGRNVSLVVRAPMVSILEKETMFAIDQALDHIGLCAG

O=CCCC(=O)O [SSA, succinic semi‐aldehyde]
X-ray crystal structure (1.93 Å) with pyruvate [1]: continuous density between Lys162, pyruvate, and succinic semi‐aldehyde such that the carbon–carbon bond between these substrates has formed

NCCCC[C@H](N)C(=O)O [lysine]
Ki [2]: 121 ± 5 µM

CC(=O)C(=O)O [pyruvate]
Kd [3]: 2 ± 0.7 µM

CLsoDHDPS (dihydrodipicolinate synthase) (Candidatus Liberibacter solanacearum)
Km [4]: 33 ± 3 µM | kcat [4]: 6 ± 0.2 s⁻¹ | kcat/Km [4]: 180000 M⁻¹ s⁻¹
